According to ChEMBL document CHEMBL1152973, “Structure-activity relationship of etomidate derivatives at the GABA(A) receptor: Comparison with binding to 11beta-hydroxylase” (Bioorg Med Chem Lett, 2009):
Calls of active or inactive are those of the source. The rule behind the calls is not given here.

Experiments:
[1] = Displacement of [3H]ethynylpropylbicycloorthobenzoate from GABA receptor from rat cortical membrane by scintillation counting in absence of GABA
[2] = Displacement of [3H]ethynylpropylbicycloorthobenzoate from GABAA receptor from rat cortical membrane by scintillation counting in presence of 1 uM GABA
Rattus norvegicus [3] = species: Rattus norvegicus; assay: Displacement of [3H]ethynylpropylbicycloorthobenzoate from GABA receptor from rat cortical membrane at 100 uM by scintillation counting in absence of GABA
Rattus norvegicus [4] = species: Rattus norvegicus; assay: Displacement of [3H]ethynylpropylbicycloorthobenzoate from GABA receptor from rat cortical membrane at 100 uM by scintillation counting in presence of 1 uM GABA
Rattus norvegicus [5] = species: Rattus norvegicus; assay: Ratio of IC50 for rat cortical membrane GABA receptor in absence of GABA to IC50 for rat cortical membrane GABA receptor in presence of GABA

**Q.** What does the source list for `COC(=O)c1cncn1[C@H](C)c1ccc(I)cc1` [IODOMETOMIDATE I-123, R-]?
**A.** IC50 [1]: > 300 µM; IC50 [2]: 37 µM

**Q.** Which Activity (Rattus norvegicus [3]) does the source give for `CC(C)(c1cccnc1)C(O)c1cccnc1` (stereo not given) here?
**A.** inactive

**Q.** And the Activity (Rattus norvegicus [4])?
**A.** inactive

**Q.** What does the source list for `C[C@H](c1ccccc1)n1cncc1C(N)=O`?
**A.** Activity (Rattus norvegicus [3]): inactive; Activity (Rattus norvegicus [4]): inactive

**Q.** For `CC(=O)[C@H]1CC[C@H]2[C@@H]3CC[C@H]4C[C@H](O)CC[C@]4(C)[C@H]3C(=O)C[C@]12C` [ALFAXALONE], which IC50 [1] is on record?
**A.** 86 µM

**Q.** What about the Ratio IC50 (Rattus norvegicus [5]) of the same compound?
**A.** 102

**Q.** And the IC50 [2]?
**A.** 0.9 µM

**Q.** Which Activity (Rattus norvegicus [3]) does the source give for `COC(=O)c1cncn1[C@H](C)c1cccnc1` here?
**A.** inactive

**Q.** What about the Activity (Rattus norvegicus [4]) of the same compound?
**A.** inactive

**Q.** Which results are given for `CCOC(=O)c1cncn1[C@H](C)c1ccc(I)cc1`?
**A.** IC50 [1]: > 300 µM; IC50 [2]: 33 µM

**Q.** For `COC(=O)c1cncn1[C@@H]1CCc2ccccc21`, which IC50 [1] is on record?
**A.** > 300 µM

**Q.** And the IC50 [2]?
**A.** 122 µM

**Q.** For `C[C@H](c1ccccc1)n1cncc1C(=O)O`, which Activity (Rattus norvegicus [3]) is on record?
**A.** inactive

**Q.** And the Activity (Rattus norvegicus [4])?
**A.** inactive

**Q.** Which IC50 [1] does the source give for `COC(=O)c1cncn1[C@H](C)c1cccc(I)c1` here?
**A.** > 300 µM

**Q.** What about the IC50 [2] of the same compound?
**A.** 53 µM

**Q.** With `CC(=O)c1cncn1[C@H](C)c1ccccc1` as the compound, how does the IC50 [1] read?
**A.** > 300 µM

**Q.** And the IC50 [2]?
**A.** 155 µM

**Q.** Which IC50 [1] does the source give for `COC(=O)c1cncn1[C@H](C)c1ccccc1` here?
**A.** 163 µM

**Q.** And the Ratio IC50 (Rattus norvegicus [5])?
**A.** 19.6

**Q.** What about the IC50 [2] of the same compound?
**A.** 8.97 µM

**Q.** Which IC50 [1] does the source give for `CCOC(=O)c1cncn1[C@H](C)c1ccccc1` [ETOMIDATE] here?
**A.** 38 µM

**Q.** And the Ratio IC50 (Rattus norvegicus [5])?
**A.** 19.3

**Q.** What about the IC50 [2] of the same compound?
**A.** 2.05 µM

**Q.** Which IC50 [1] does the source give for `COC(=O)c1cncn1Cc1ccccc1` here?
**A.** > 300 µM

**Q.** And the IC50 [2]?
**A.** 157 µM

**Q.** With `CC(C)OC(=O)c1cncn1[C@H](C)c1ccccc1` as the compound, how does the IC50 [1] read?
**A.** 20.7 µM

**Q.** What about the Ratio IC50 (Rattus norvegicus [5]) of the same compound?
**A.** 14.6

**Q.** What about the IC50 [2] of the same compound?
**A.** 1.47 µM

**Q.** What does the source list for `COC(=O)c1cncn1[C@H](C)c1ccc(CO)cc1`?
**A.** IC50 [1]: > 300 µM; IC50 [2]: 169 µM

**Q.** For `CC(=O)[C@H]1CC[C@H]2[C@@H]3CC[C@H]4C[C@H](O)CC[C@]4(C)[C@H]3CC[C@]12C` [BREXANOLONE], which IC50 [1] is on record?
**A.** 6.2 µM

**Q.** What about the Ratio IC50 (Rattus norvegicus [5]) of the same compound?
**A.** 50

**Q.** What about the IC50 [2] of the same compound?
**A.** 0.14 µM

**Q.** For `CC(C)(C(=O)c1cccnc1)c1cccnc1`, which Activity (Rattus norvegicus [3]) is on record?
**A.** inactive

**Q.** And the Activity (Rattus norvegicus [4])?
**A.** inactive

**Q.** With `C[C@H](c1ccccc1)n1cncc1C(=O)OCCF` as the compound, how does the IC50 [1] read?
**A.** 80 µM

**Q.** And the Ratio IC50 (Rattus norvegicus [5])?
**A.** 16.6

**Q.** What about the IC50 [2] of the same compound?
**A.** 4.78 µM

**Q.** Which IC50 [1] does the source give for `COC(=O)c1cncn1[C@H](C)c1ccc(C)cc1` here?
**A.** > 300 µM

**Q.** And the IC50 [2]?
**A.** 15.5 µM

**Q.** For `COC(=O)c1cncn1[C@@H](C)c1ccccc1`, which IC50 [1] is on record?
**A.** > 300 µM

**Q.** And the IC50 [2]?
**A.** 202 µM

**Q.** For `COC(=O)c1cncn1[C@H](C)c1ccc(Br)cc1`, which IC50 [1] is on record?
**A.** 109 µM

**Q.** What about the Ratio IC50 (Rattus norvegicus [5]) of the same compound?
**A.** 15.6

**Q.** What about the IC50 [2] of the same compound?
**A.** 7.62 µM

**Q.** Which IC50 [1] does the source give for `CCCOC(=O)c1cncn1[C@H](C)c1ccccc1` here?
**A.** 15.4 µM

**Q.** And the Ratio IC50 (Rattus norvegicus [5])?
**A.** 14.1

**Q.** And the IC50 [2]?
**A.** 1.29 µM

**Q.** Which IC50 [1] does the source give for `CC[C@H](c1ccccc1)n1cncc1C(=O)OC` here?
**A.** 111 µM

**Q.** And the Ratio IC50 (Rattus norvegicus [5])?
**A.** 15.8

**Q.** And the IC50 [2]?
**A.** 7.15 µM
